Patent US20060240083A1, “ANTIMICROBIAL AND IMMUNOSTIMULATING COMPOSITION” (BRENNEN MEDICAL, LLC, priority 2000, published 2006)

Test system: bacteria
Test: Zone-of-inhibition test, overall outcome in words
Format: cell-based
Method: A standard zone-of-inhibition study was performed on the lotion and wound dressing exemplars described above. The zone-of-inhibition test involved placing a quantity of the prepared lotion or wound dressing in a petri dish, which had been cultured with a particular bacterium. The bacteria used in this test included: B. subtilis, B. vulgatus, C. albicans, E. coli, P. aeruginosa, and S. aureus. In each of these tests, the diameter of the prepared lotion or wound dressing placed in the cultured petri dishes was measured and recorded at the outset of the test. On the first, second, and fifth days thereafter the diameter of the zone of inhibition was measured and recorded. The zone of inhibition in this test was defined as the area surrounding the prepared lotion or wound dressing on the petri dish which was uninhabited by the bacteria of the specific culture. Table 1 reports data for the prepared lotion zone-of-inhibition test and Table 2 reports data for the prepared wound dressing zone-of-inhibition test.
Similar results are observed for a zone-of-inhibition test when a yeast-derived β-glucan is used in a medical composition as described herein.

In the case of β-glucan, the “antimicrobial effect in the zone-of-inhibition test (in words)” value (overall outcome of the zone-of-inhibition tests) was “no inhibition of bacteria” and the “effect on bacterial growth (in words)” value (β-glucan as a microbial nutrient) was “promotes bacterial growth”.
